Laboratory results taken from patent US10822383B2, “Polypeptides capable of producing glucans having alpha-1,2 branches and use of the same” (E I DU PONT DE NEMOURS AND COMPANY, priority 2015, dated 2020).

B1: GTFJ18T1: N-terminal-truncated form of GTFJ18 (first 1664 residues removed), SEQ ID NO:27 (protein)
chain: VKGDKRTIDGVLYTFDKESGERKGLDSISVLPTNGQYTTDKAQNWYYQVDGENVKGLYTNNDGQLRYFDLTTGVQTKGNFVTIGNDTYYFTKEQGDGQIVSEVVSGHYGTVQLSDNSSAWVYRGANDQILKGLQNINGRLQYFDLTTGAQLKGGAANYDGNLYYFESSDGNLVSKIQQSYSTGNYVTDGDKVTYADEQNNQVTGLALIDDQLQYFDPSDGRQVKNEQVIVDGVTYYFDKNGNGQYLFTNTATMSTNEFAKHSAAYSNDSSSFKNTIDGFLTADTWYRPKDILENGQTWVVSSTNDVRPLITVWWLNKDVQVNYSNFMKQNGLLDTSSQFNLQSDQYDLNVAAQKVQVAIEKRISKEKSTDWLKDLLFEAHEDTPSFVKQQFIWNKDSEYQGQGDAWFQGGYLKYGNNELTPTTNSDYRESGNTLDFLLANDVDNSNPAVQAENLNWLHYLMNFGTITANDDDANFDSIRIDAVDFIDNDAIQRTYDYMRDAYKVDASEDNANKHISLVEAGLDAGTSTIKSDALVESNFREAATLSLANQSGENSSLTNMLQDIDGGQIIADHANNATENESTPNYSIIHAHDKGIQEKVGAAITDVTGADWTNFTDDQLKEGLAAYYQDQRSTNKKYNIYNLPSIYALMLTNKDTVPRVYYGDMYQDDGQYMEKQSIYYDAIVSLMNTRKSYVSGGQTMDVDEHGLLKSVRFGKDAMTASDLGTNETRTEGVGVLVGNDSSLKLNDSDTVTLEMGAAHKNQKYRAALLTTSDGIVTYDADNDAPTIWTDDRGTLTFSNKEIAGQDYTSVQGFANSQVSGYLAVWVPVGASDDQDVRTAALTDANLDDKVLHSNAALDSNLIYEGFSNFQPKATTNDELTNVVIAKNANLFEKWGITSFEMAPQYRSSGDHTFLDSTIDNGYAFTDRYDLGFETPTKYGTDKDLRTAIKALHQSNMQVMADVVDNQVYNLSGQEVVSASRAGVYGNDVSTGFGTQLYAVNSVGGGKYQAQYGGEYLNELKQQYPDLFEAKTYDYWVKNYSNDGSDPYYTLSQNTRKDMPSSEVIKQWSAKYMNGTNVLGNGMGYVLKDWNTGEYFKIGEKNADFITN
modifications: Leuconostoc mesenteroides

Tests used:
[1] = Alpha-1,2 branching activity of GTFJ18 / GTFJ18T1 on a glucan backbone (NMR linkage profile of product); type: biochemical; conditions: for alpha-1,2 linkages in the product of the branching reaction / alpha-1,6 linkages in the product of the branching reaction: 10% (v/v) crude cell extract, 40 g/L sucrose, 22 hours, NMR
Description: The alpha-1,2 branching activities of each enzyme (GTFJ18 or GTFJ18T1) were individually tested on the glucan product of the glucosyltransferase, GTF5604, which is derived from Streptococcus criceti HS-6 (GENBANK® Acc. No. WP_004226213.1, old gi: 357235604) and disclosed in International Pat. Appl. Publ. No. WO2015/183714 (also referred to therein as SG1018 glucosyltransferase or GtfHS6). GTF5604 (SEQ ID NO:33) has 1338 amino acids with the N-terminal 36 amino acids deduced as its signal peptide by the SignalP 4.0 program. The native nucleotide sequence (positions 1289627-1293643 of GENBANK Acc. No. NZ_AEUV02000002.1) encoding full length GTF5604 (SEQ ID NO:33) including its native signal peptide was synthesized by GenScript and cloned into the SpeI and HindIII sites of the replicative Bacillus expression plasmid pHYT (Takara Bio Inc., Otsu, Japan) under the B. subtilis aprE promoter. The construct was first transformed into E. coli DH10B and selected on ampicillin (100 μg/mL) plates. The confirmed clone, pDCQ918, was then transformed into Bacillus subtilis strain BG6006 (amyE::xylRPxylAcomK-ermC, degUHy32, oppA, ΔspoIIE3501, ΔaprE, ΔnprE, Δepr, ΔispA, Δbpr, Δvpr, ΔwprA, Δmpr-ybfJ, ΔnprB) and selected on tetracycline (12.5 μg/mL) plates, after which the transformed strain, termed as SG1018, was grown in LB containing 10 μg/mL tetracycline first, followed by subculturing into Grant's II medium containing 12.5 μg/mL tetracycline and growth at 37° C. for 2-3 days. The cultures were spun at 15,000×g for 30 min at 4° C. and the supernatant was filtered through 0.22-μm filters. A glucan synthesis reaction was set up containing 10% (v/v) of the SG1018 supernatant with 100 g/L sucrose, 10 mM sodium citrate pH 5 and 1 mM CaCl2. […] The glucan synthesis reaction was subjected to heat inactivation at 95° C. for 30 min.
A branching reaction was set up with 70% (v/v) of the heat-inactivated glucan synthesis reaction. The enzyme being tested for branching activity off of the above glucan product, GTFJ18 or GTFJ18T1, was provided as 10% (v/v) of the above-prepared crude cell extract from EC0059 or EC0059T1, respectively, with 40 g/L sucrose. Each branching reaction was incubated at 37° C. or 30° C. for 22 hours and the products were analyzed by HPLC for sucrose consumption and NMR for linkage profile.
NMR data were acquired on an Agilent DD2 spectrometer (Agilent Technologies, Inc., Santa Clara, Calif.) operating at 500 MHz for ^1H using a 5-mm cryogenic triple-resonance pulsed-field gradient probe. Water suppression was obtained by carefully placing the observe transmitter frequency on resonance for the residual water signal in a “presat” experiment, and then using the first slice of a NOESY experiment with a full phase cycle (multiple of 32) and a mix time of 10 ms. One-dimensional ^1H spectra were acquired with a spectral width of 6410 Hz, acquisition time of 5.1 s, 65536 data points, 4 s pre-saturation and a 90-degree observe pulse. Signal averaging typically involved accumulation of 64 scans. Sample temperature was maintained at 25° C.
Liquid samples were prepared by adding either 50 or 100 μL of completed branching reactions to a 5-mm NMR tube along with 60 μL of D2O containing 12.4 mM 4,4-dimethyl-4-silapentane-1-sulfonic acid sodium salt (DSS) as an internal chemical shift reference, and the balance (450 or 400 μL) of D2O for a total volume of […]. The DSS methyl resonance was set to 0 ppm. […]

[2] = Alpha-1,2 branching reaction with GTF9905 on products of the GTF8117 reaction; type: biochemical; conditions: 1.13 U/mL GTF9905, 175 g/L sucrose, 30° C., 76.2 h
Protocol: First, a reaction was performed to prepare glucan that was used in the second part of this Example as a substrate for 1,2-branching enzyme. A reaction mixture (20 mL) comprised of sucrose (488 g/L) and GTF8117 (Example 4, 9.4 U/mL) was adjusted to pH 5.5 with 6.0 N hydrochloric acid and stirred at 47° C. Aliquots were withdrawn at predetermined times and quenched by heating at 90° C. for 20 min. The resulting heat-treated aliquots were centrifuged and the supernatants analyzed by HPLC to determine the concentration of sucrose, glucose, fructose, leucrose, oligosaccharides and polysaccharides. After 6 h, the reaction mixture was heated to 90° C. for 30 minutes, and an aliquot of the heat-treated reaction mixture was centrifuged and the resulting supernatant analyzed for soluble monosaccharides, oligosaccharides and polysaccharides (DP8+) (Table 1). The DP8+ polysaccharides appeared to contain about 100% alpha-1,6 linkages.
A second reaction was then performed to conduct alpha-1,2 branching from the products of the first reaction. […] The resulting heat-treated aliquots were centrifuged and the supernatants analyzed by HPLC to determine the concentration of sucrose, glucose, fructose, leucrose, oligosaccharides and polysaccharides. […]

Molecule	alpha-1,2 linkages in the product of the branching reaction [1]	alpha-1,6 linkages in the product of the branching reaction [1]	alpha-1,2 branching activity (in words) [2]	alpha-1,2 branching activity (in words) ([1]; compared to full length GTFJ18)
GTFJ18: full length glucosyltransferase from Leuconostoc mesenteroides J18, SEQ ID NO:1 (identical to SEQ ID NO:13)	0.6%	97%		
GTF9905: Fructobacillus tropaeoli glucosyltransferase, SEQ ID NO:4, mature form positions 36-1672			significant alpha-1,2 branching activity	
B1	18%	82%		much higher alpha-1,2 branching activity
